What was measured:
[1] = system: Human immunodeficiency virus 1; experiment: Inhibition of reverse transcriptase RTY18C mutant in HIV1 Z6gpt assessed as inhibition of ssDNA synthesis
[2] = molecular target: Human immunodeficiency virus type 1 reverse transcriptase (Human immunodeficiency virus 1) (UniProt Q72547); conditions: 10 uM
Description: Inhibition of reverse transcriptase assessed as decrease in ssDNA level in cell free virion HIV1 by NERT-based real-time PCR at 10 uM

## Cc1ccnc2c1NC(=O)c1cccnc1N2C1CC1
[1]
  Activity: 256 µM
[2]
  inhibition: 75%
